This is an account of results in ChEMBL document CHEMBL1136186, “Microcystin analogues comprised only of Adda and a single additional amino acid retain moderate activity as PP1/PP2A inhibitors” (Bioorg Med Chem Lett, 2003).

*1 amine or outer side, *2 acyl side, *3 side chain or, on linkers, in order; H or OH if unused. Where a SMILES comes first, the peptide text is derived from it. Bridges are numbered along the chain shown (N, C = ends). [ ]: non-standard residue; d: D form. Adda = CO[C@@H](Cc1ccccc1)[C@@H](C)/C=C(C)/C=C/[C@H](N[*:1])[C@H](C)C(=O)[*:2]; dAsp(3S-Me) = C[C@H](C(=O)[*:3])[C@@H](N[*:1])C(=O)[*:2]; d(γGlu) = O=C(O)[C@@H](CCC(=O)[*:2])N[*:1]; NMeDha = C=C(NC)C(=O)O

The target of assay [1] is T1, Serine/threonine-protein phosphatase 2A catalytic subunit alpha isoform (Bos taurus, UniProt P67774). The assay can be described thus: Inhibitory concentration against protein phosphatase 2A (PP2A) using pNPP assay. On the set-up: species or system Oryctolagus cuniculus.
T1 sequence (P67774 whole entry, canonical isoform): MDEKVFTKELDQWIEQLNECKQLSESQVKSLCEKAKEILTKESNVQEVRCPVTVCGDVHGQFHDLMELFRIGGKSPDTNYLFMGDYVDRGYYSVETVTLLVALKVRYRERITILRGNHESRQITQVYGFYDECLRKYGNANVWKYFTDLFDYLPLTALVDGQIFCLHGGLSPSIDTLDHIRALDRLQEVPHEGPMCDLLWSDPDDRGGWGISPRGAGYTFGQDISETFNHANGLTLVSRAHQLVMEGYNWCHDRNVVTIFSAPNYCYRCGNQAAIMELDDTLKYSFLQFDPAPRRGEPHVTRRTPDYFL
The species named for another assay is Oryctolagus cuniculus. Nature of the assay: Ratio of inhibition of PP1 to that of inhibition of PP2A using phosphorylase-a assay.
For assay [2], the target named is T1, Serine/threonine-protein phosphatase 2A catalytic subunit alpha isoform. Nature of the assay: Inhibitory concentration against protein phosphatase 2A (PP2A) using phosphorylase-a assay. On the set-up: species or system Oryctolagus cuniculus.

Take `CO[C@@H](Cc1ccccc1)[C@@H](C)/C=C(C)/C=C/[C@H](NC(C)=O)[C@H](C)C(=O)N1C[C@H](C(=O)O)C[C@@H]1C(=O)O`: the half-inhibitory concentration (IC50) (in general, the midpoint of a concentration-inhibition curve) in assay [1] is > 100 µM.
In the case of `CO[C@@H](Cc1ccccc1)[C@@H](C)/C=C(C)/C=C/[C@H](NC(C)=O)[C@H](C)C(=O)N1[C@H](C(=O)O)CC[C@H]1C(=O)O`, the IC50 in assay [1] is > 39 µM. Also, the Ratio in the assay filed under Oryctolagus cuniculus was > 1.3.
For the compound `CC(=O)N[C@@H](/C=C/C(C)=C/CCCc1ccccc1)[C@H](C)C(=O)N[C@H](C)C(=O)O`, the 50% inhibitory concentration (IC50) in assay [1] is > 100 µM.
As for `CO[C@@H](Cc1ccccc1)[C@@H](C)/C=C(C)/C=C/[C@H](NC(C)=O)[C@H](C)C(=O)N1C[C@@H](C(=O)O)C[C@@H]1C(=O)O`, the half-maximal inhibitory concentration (IC50) in assay [1] is > 100 µM.
`CO[C@@H](Cc1ccccc1)[C@@H](C)/C=C(C)/C=C/[C@H](NC(C)=O)[C@H](C)C(=O)N1[C@@H](C(=O)O)CC[C@H]1C(=O)O` returned an IC50 in assay [1] of 10 µM. In addition, the Ratio in the assay filed under Oryctolagus cuniculus is > 5.
As to `CO[C@@H](Cc1ccccc1)[C@@H](C)/C=C(C)/C=C/[C@H](NC(C)=O)[C@H](C)C(=O)N1C[C@H](C(=O)O)C[C@H]1C(=O)O`, the IC50 in assay [1] was > 100 µM.
On to `CO[C@@H](Cc1ccccc1)[C@@H](C)/C=C(C)/C=C/[C@H](NC(C)=O)[C@H](C)C(=O)N(CC(=O)O)CC(=O)O`, for which the IC50 in assay [1] was > 100 µM.
Still for that read-out and setting: as for `CO[C@@H](Cc1ccccc1)[C@@H](C)/C=C(C)/C=C/[C@H](NC(C)=O)[C@H](C)C(=O)N1CCC[C@H]1C(=O)O`, the figure is > 100 µM.
Regarding `CO[C@@H](Cc1ccccc1)[C@@H](C)/C=C(C)/C=C/[C@H](NC(C)=O)[C@H](C)C(=O)N1C[C@H](O[Si](C(C)C)(C(C)C)C(C)C)C[C@@H]1C(=O)O`, the IC50 in assay [1] is > 63 µM. Moreover, in the assay filed under Oryctolagus cuniculus, the Ratio is > 2.
As to `CC(=O)N[C@@H](/C=C/C(C)=C/c1ccc(-c2ccccc2)cc1)[C@H](C)C(=O)N[C@H](C)C(=O)O`, the IC50 in assay [1] is > 100 µM.
With `CO[C@@H](Cc1ccccc1)[C@@H](C)/C=C(C)/C=C/[C@H](NC(C)=O)[C@H](C)C(=O)N[C@@H](C)C(=O)O`, the IC50 in assay [2] was determined as 7.8 µM. Further, the Ratio in the assay listed under Oryctolagus cuniculus was 1.22.
For `CO[C@@H](Cc1ccccc1)[C@@H](C)/C=C(C)/C=C/[C@H](NC(C)=O)[C@H](C)C(=O)NCC(=O)O`, in that order: 0.5 µM and 1.11.
For the compound `COC(=O)[C@@H]1CCCN1C(=O)[C@@H](C)[C@H](/C=C/C(C)=C/[C@H](C)[C@H](Cc1ccccc1)OC)NC(C)=O`, the IC50 in assay [1] is > 100 µM.
For the compound `COC(=O)[C@H]1CCCN1C(=O)[C@@H](C)[C@H](/C=C/C(C)=C/[C@H](C)[C@H](Cc1ccccc1)OC)NC(C)=O`, the IC50 in assay [1] is > 100 µM.
For `CO[C@@H](Cc1ccccc1)[C@@H](C)/C=C(C)/C=C/[C@H](NC(C)=O)[C@H](C)C(=O)N[C@H](C)C(=O)O`, the IC50 in assay [2] is 0.16 µM; in assay [1] it was 7 µM. Also, the Ratio in the assay listed under Oryctolagus cuniculus stood at 6.
Turning to `CC(=O)N[C@@H](/C=C/C(C)=C/c1ccccc1Cc1ccccc1)[C@H](C)C(=O)N[C@H](C)C(=O)O`, the half-maximal inhibitory concentration (IC50) in assay [1] is > 100 µM.
For the compound `CO[C@@H](Cc1ccccc1)[C@@H](C)/C=C(C)/C=C/[C@H](NC(C)=O)[C@H](C)C(=O)N1CCC[C@@H]1C(=O)O`, the IC50 in assay [1] is > 25 µM. Moreover, the Ratio in the assay listed under Oryctolagus cuniculus was determined as 2.
With `C=C1C(=O)N[C@H](C)C(=O)N[C@@H](CC(C)C)C(=O)N[C@@H](C(=O)O)[C@H](C)C(=O)N[C@@H](C)C(=O)N[C@@H](/C=C/C(C)=C/[C@H](C)[C@H](Cc2ccccc2)OC)[C@H](C)C(=O)N[C@@H](C(=O)O)CCC(=O)N1C` (A[Adda][d(γGlu)][NMeDha][dA]L[dAsp(3S-Me)]-OH; lactam N-7), the IC50 was 0.0003 µM in assay [2] and 0.003 µM in assay [1]. Also, the Ratio in the assay listed under Oryctolagus cuniculus came to 1.
For `CO[C@@H](Cc1ccccc1)[C@@H](C)/C=C(C)/C=C/[C@H](NC(C)=O)[C@H](C)C(=O)N1CCCC1`, the IC50 in assay [1] was > 100 µM.
